Measured values reported in patent publication US7598067B2, “PDEs and uses thereof” (priority 2000, dated 2009).
Values joined by “and” are separate entries in the source; they are usually repeats but may differ in a detail not shown here. Equal values may be shown once. Read-outs that look alike come from different tables or passages of the source.

Columns and labels:
TbPDE2B = TbPDE2B (Trypanosoma brucei, UniProt Q9GQU6); test: Phosphodiesterase assay, recombinant TbPDE2B expressed in HEK 293 cells; assay type: biochemical; settings: for inhibition of recombinant TbPDE2B, in words: 1 μM [3H] cAMP, cGMP up to 200 μM
Sequence of TbPDE2B (Q9GQU6 entry or part of it): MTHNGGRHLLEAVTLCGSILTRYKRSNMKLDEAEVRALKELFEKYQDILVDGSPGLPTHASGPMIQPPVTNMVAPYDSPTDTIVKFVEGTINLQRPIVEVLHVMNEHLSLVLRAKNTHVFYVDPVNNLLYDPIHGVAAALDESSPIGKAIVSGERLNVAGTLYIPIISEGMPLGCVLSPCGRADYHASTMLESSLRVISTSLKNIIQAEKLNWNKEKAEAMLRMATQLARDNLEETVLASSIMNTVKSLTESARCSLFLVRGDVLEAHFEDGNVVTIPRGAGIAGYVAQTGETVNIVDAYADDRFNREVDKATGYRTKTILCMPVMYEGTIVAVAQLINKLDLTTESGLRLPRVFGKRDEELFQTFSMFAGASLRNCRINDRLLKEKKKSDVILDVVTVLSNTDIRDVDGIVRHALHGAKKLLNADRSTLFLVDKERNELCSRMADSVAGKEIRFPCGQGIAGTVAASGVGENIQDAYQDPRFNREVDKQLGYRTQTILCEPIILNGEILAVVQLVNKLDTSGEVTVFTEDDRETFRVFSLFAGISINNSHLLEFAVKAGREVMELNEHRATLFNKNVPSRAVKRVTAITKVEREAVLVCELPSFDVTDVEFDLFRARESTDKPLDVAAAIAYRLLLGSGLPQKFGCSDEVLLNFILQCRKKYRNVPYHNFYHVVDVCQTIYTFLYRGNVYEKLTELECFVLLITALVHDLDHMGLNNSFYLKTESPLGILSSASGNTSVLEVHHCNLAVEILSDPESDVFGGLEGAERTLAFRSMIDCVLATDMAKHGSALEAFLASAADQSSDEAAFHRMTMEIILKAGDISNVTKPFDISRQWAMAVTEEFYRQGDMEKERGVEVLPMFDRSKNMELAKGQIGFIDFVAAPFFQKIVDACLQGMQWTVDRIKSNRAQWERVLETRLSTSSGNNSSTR
Procedure: Expression of T. brucei PDE. The ORF sequence for T. brucei PDE was subcloned into the pcDNA 3.1-TOPO vector (Invitrogen) according to the manual (Eukaryotic TOPO TA Cloning, version C) and plasmid DNA purified as described above. Human embryonic kidney 293 (HEK 293) cells were transfected with 12 μg of DNA in 60 μl of GenePORTER Transfection Reagent (Gene Therapy Systems, San Diego, Calif.) in 100-mm dishes and kept at 37° C. in 5% CO2 for 24 h. After this period fresh medium was added, and incubated under the same conditions for an additional 24 h. The same amount of pcDNA vector containing the sequence for the Green Fluorescent Protein (GFP) was transfected under identical conditions as a positive control for expression and as a negative control for PDE activity. Two plates were harvested at a time and homogenized with 1 ml of homogenization buffer containing 40 mM Tris-HCl, pH 7.5; 15 mM benzamidine; 15 mM 2-mercaptoethanol; 1 μg/ml pepstatin A; 1 μg/ml leupeptin and 5 mM EDTA. The cell suspension was immediately subjected to sonication (3×5 s) on ice. One volume of glycerol and 1 mg/ml of bovine serum albumin were added immediately to the homogenate.
Phosphodiesterase assay. […]

TbPDE2A [1] = biological target: T1, TbPDE2A (Trypanosoma brucei, UniProt Q9GTN9); test: Phosphodiesterase assay, recombinant TbPDE2A in yeast lysates; assay type: biochemical; settings: for IC50 / IC50 for TbPDE2A (μM): full-size TbPDE2A, yeast lysates; for IC50 / IC50 for TbPDE2A (μM) / effect on TbPDE2A activity in initial screening: 1 μM cAMP; for effect on TbPDE2A activity in initial screening: 100 μM inhibitor, FIG. 26
T1 sequence (Q9GTN9 entry or part of it): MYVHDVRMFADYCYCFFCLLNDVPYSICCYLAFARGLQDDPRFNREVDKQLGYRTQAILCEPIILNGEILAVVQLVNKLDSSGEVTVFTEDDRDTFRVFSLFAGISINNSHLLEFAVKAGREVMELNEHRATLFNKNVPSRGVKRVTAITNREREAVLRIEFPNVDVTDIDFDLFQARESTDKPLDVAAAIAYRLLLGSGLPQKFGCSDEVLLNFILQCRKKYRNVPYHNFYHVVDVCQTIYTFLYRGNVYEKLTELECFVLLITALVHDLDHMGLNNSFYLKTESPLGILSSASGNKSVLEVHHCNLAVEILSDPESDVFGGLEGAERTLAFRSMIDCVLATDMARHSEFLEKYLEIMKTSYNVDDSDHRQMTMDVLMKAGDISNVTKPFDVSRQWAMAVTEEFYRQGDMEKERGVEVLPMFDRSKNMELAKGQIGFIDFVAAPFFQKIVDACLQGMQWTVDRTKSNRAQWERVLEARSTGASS
Procedure: Yeast cell lysis. Yeast cells grown to mid- to end-log phase in SC-leu medium were collected, resuspended quickly in an original volume of prewarmed YPD medium and incubated for an additional 3 h at 30° C. in order to maximize protein expression. Cells were then harvested, washed once in water and once in HBBB buffer (Hank's balanced salt solution, containing 50 mM HEPES, pH 7.5). The washed cell pellet was suspended in an equal volume of HBB containing a protease inhibitor cocktail (Complete™, Roche Molecular Biochemicals). […] The cell lysate was clarified by centrifugation for 15 min at 15,000×g.
Phosphodiesterase Assay. […] […] Incubation was at 30° C. for 20 min. […] The precipitates were filtered through GF-C glass fiber fitters and filters were washed 3 times with ice-cold 1 mM NaOH/100 mM NaCl and were then dried and counted in liquid scintillation fluid (4 g/I omnifluor in toluene). All assays were carried out in triplicates and with three independent enzyme preparations. Controls for the efficiency of precipitation of cAMP and of AMP were always included. When assaying yeast cell extracts, control lysates from the PDE deletion strains transfected with empty vector was used as a background control. […] Inhibitors were dissolved in DMSO or ethanol, and the final concentration of the solvent never exceeded 1% in the assays reaction. Incubation times and enzyme concentrations were always adjusted so that less than 30% of the input substrate was hydrolyzed (2-5 μg total protein/100 μl assay). IC50 values were calculated by curve fitting on a four parameter dose-response model with variable slope, using the Prism software package of Graph Pad Inc., San Diego, Calif.

[2] = tested on: total PDE activity of trypanosomal cell extracts; test: Total PDE activity in trypanosomal cell extracts; assay type: biochemical, Trypanosoma brucei
Text: Chemical validation of the TbPDE2 family as a potential drug target. One of the novel PDEs of the invention, TbPDE2A, was expressed as a recombinant protein and was characterized in detail (see above). […].

PDE 4 = settings: read-out: PDE Selectivity (IC50); cited from earlier work
[3] = tested on: endogenous PDE activity from the HEK 293 cells; test: Endogenous PDE activity from HEK 293 cells; assay type: biochemical, human; settings: lowest concentration used (10 μM)
Text: Phosphodiesterase assay. […] […]

PDE 6 = settings: read-out: PDE Selectivity (IC50); cited from earlier work
TbPDE2A [4] = biological target: T1, TbPDE2A; settings: Table 2, from reference; cited from earlier work
PDEs (Non-selective) = settings: read-out: PDE Selectivity (IC50); cited from earlier work
[5] = tested on: PDE8A and PDE7A from hut78 cells; test: PDE activity of monoQ HPLC fractions of hut78 cells, low Km peak; assay type: biochemical, human; settings: 0.01 μM cAMP; 10 μM rolipram or 100 μM IBMX
Procedure: Since pure CD4^+ T cells can only be obtained in limited quantities, a human CD4^+ T cell line, hut78, (ATCC, Manassas, Va.), was used to study the activity of PDE8A. Hut78 cells (2×10^8) were resuspended in 20 mM Tris pH 7.5 buffer containing protease inhibitors (Boehringer Mannheim, Indianapolis, Ind.) and sonicated. The supernatant was removed after centrifugation at 15000×g for 10 minutes and applied to a Mono Q column attached to a Rainin Dynamax HPLC system (Ameryville, Calif.). A NaCl gradient (0-0.8M) was passed through the column and 250 uL fractions were collected. The fractions were assayed for activity using either 1 μM or 0.01 μM cAMP as substrate and the indicated concentration of inhibitor (FIG. 5). Western blot analysis was also performed (10 μL/well) using PDE7A or 8A antibodies.

| Compound | IC50 (TbPDE2B) | inhibition of recombinant TbPDE2B, in words (TbPDE2B) | IC50 (TbPDE2A [1]) | effect on TbPDE2A activity in initial screening (TbPDE2A [1]) | other results |
| --- | --- | --- | --- | --- | --- |
| CCCc1nn(C)c2c(=O)[nH]c(-c3cc(S(=O)(=O)N4CCN(C)CC4)ccc3OCC)nc12 [Sildenafil, sildenafil] | > 100 µM | No IC50 could be obtained | 9.4 µM |  | IC50 for TbPDE2A (μM) (TbPDE2A [1]): low micromolar range; total PDE activity [2]: marked, if not complete, reduction |
| Ro 20-1724 |  | No inhibition |  |  | IC50 (PDE 4): 2 µM; endogenous PDE activity from the HEK 293 cells [3]: completely abolished; IC50 (TbPDE2B; Substrate concentration 1 μM [3H]-cAMP, read-out: TbPDE2B IC50 (μM) (n = 3)): > 300 µM |
| CCCOc1ccccc1-c1nc2nn[nH]c2c(=O)[nH]1 [Zaprinast, zaprinast] | > 50 µM | No IC50 could be obtained | 42.4 µM | only very little effect | IC50 (PDE 6): 0.15 µM; IC50 (TbPDE2A [4]): 42.5 µM |
| CN(C(=O)CCCOc1ccc2[nH]c(=O)ccc2c1)C1CCCCC1 [Cilostamide, cilostamide] |  |  | > 100 µM | only very little effect |  |
| COCc1nc2c([nH]1)c(=O)n(C)c(=O)n2CC(C)C [8-methoxymethyl-IBMX] |  |  |  | only very little effect |  |
| COc1ccc(Cc2nccc3cc(OC)c(OC)cc23)cc1OC [Papaverine, papaverine] | 304 ± 19 µM | extremely low sensitivity |  |  | IC50 (PDEs (Non-selective)): 5 to 25 µM; effectiveness on TbPDE2A, in words (TbPDE2A [1]): only marginal activity |
| CCOC(=O)c1cnc2c(cnn2CC)c1NN=C(C)C [Etazolate, etazolate] | 127 µM |  | 30.3 µM |  |  |
| Cc1[nH]c(=O)c(C#N)cc1-c1ccncc1 [milrinone] |  |  |  | only very little effect |  |
| CC(=O)CCCCn1c(=O)c2c(ncn2C)n(C)c1=O [Pentoxifylline, pentoxifylline] | > 800 µM | extremely low sensitivity |  |  | IC50 (PDEs (Non-selective)): 45 to 150 µM |
| COc1ccc(C2CNC(=O)C2)cc1OC1CCCC1 (stereo not shown) [Rolipram, rolipram] | > 300 µM | No inhibition | > 100 µM | no appreciable activity | IC50 (PDE 4): […]; sensitivity of the PDE activity peak [5]: resistant; endogenous PDE activity from the HEK 293 cells [3]: completely abolished; IC50 (TbPDE2A [4]): > 100 µM |
| CCCCCCC(C(C)O)n1cnc2c(N)ncnc21 (stereo not drawn) [EHNA, erythro-9-[3-(2-hydroxynonyl)]-adenine] | > 180 µM | No IC50 could be obtained |  |  |  |
| COc1cc2c(cc1OC)-c1c/c(=N\c3c(C)cc(C)cc3C)n(C)c(=O)n1CC2 [Trequinsin] |  |  | 5.4 µM |  | IC50 for TbPDE2A (μM) (TbPDE2A [1]): low micromolar range; total PDE activity [2]: marked, if not complete, reduction |
| CCOc1ccc(Cc2nccc3cc(OCC)c(OCC)cc23)cc1OCC [Ethaverine] |  |  | 14 µM and 14.2 µM | significantly more effective as an inhibitor of TbPDE2A than its parent compound papaverine | IC50 for TbPDE2A (μM) (TbPDE2A [1]): low micromolar range; total PDE activity [2]: marked, if not complete, reduction |
| Cn1c(=O)c2[nH]cnc2n(C)c1=O [Theophylline, theophylline] |  |  | > 100 µM |  | effectiveness on TbPDE2A, in words (TbPDE2A [1]): not effective |
| CCOC(=O)C1=C[C@]2(CC)CCCN3CCc4c(n1c1ccccc41)[C@@H]32 [Vinpocetine, vinpocetine] |  |  | > 100 µM | only very little effect |  |
